This is an account of results in patent US10165791B2, “Use of rubusoside for reducing or suppressing certain unpleasant taste impressions” (Symrise AG, priority 2010, dated 2019).

The conditions of data set [1]: isolated rubusoside from Rubus suavissimus; equivalent to 25 ppm; cited from earlier work.
Data set [2] can be described thus: Reduction of astringent and sour impression, panel of trained tasters. It counts as in vivo, human. Conditions: Yogurt 0.1% fat; 10 mg/kg rubusoside. How it is done:
The following products, in each case without and with a flavoring composition, were assessed by a panel of trained tasters. The astringent impression and sour impression were assessed on a scale from 1 (not perceptible) to 9 (very strong) and averaged for the tasters.

Data set [3] in a line: own tests: taste of rubusoside in water. It counts as in vivo, human. How it is done:
It is known that extracts from Rubus suavissimus or certain compounds isolated therefrom are able to make sweet-tasting orally consumable preparations taste even sweeter, as described in WO 2008/049256. Moreover, it is known that isolated rubusoside from Rubus suavissimus tastes perceptibly sweet starting from a concentration of approx. 25 mg/kg (equivalent to 25 ppm) (taste recognition threshold). Rubusoside can be used as a sweetener (Hirono, S.; Chou, W. H.; Kasai, R.; Tanaka, O.; Tada, T., Sweet and bitter diterpene glucosides from leaves of Rubus suavissimus. Chemical & Pharmaceutical Bulletin 1990, 38, (6), 1743-1744).

The conditions of data set [4]: in the presence of acids; cited from earlier work.

A value given as a limit tells only on which side of the number the result lay.

With `C=C1C[C@@]23CC[C@H]4[C@@](C)(CCC[C@@]4(C)C(=O)O[C@@H]4O[C@H](CO)[C@@H](O)[C@H](O)[C@H]4O)[C@@H]2CC[C@]1(O[C@@H]1O[C@H](CO)[C@@H](O)[C@H](O)[C@H]1O)C3` [rubusoside, Rubusoside], in data set [1], the “taste recognition threshold (tastes perceptibly sweet starting from)” value is given as “approx. 25 mg/kg”. Also, in data set [2], the “Astringent impression (0-9) b) with test substance” value was determined as 5 and the “Sour impression (0-9) b) with test substance” value is given as 5.5. In addition, the “sweet taste equivalent to the sweetness of an aqueous sucrose solution” value in data set [3] (100 mg/kg (100 ppm) in water) came to 1.4%. Also, in data set [3] (in water), the “concentration above which a recognizably bitter taste is additionally displayed” value was over 100 mg/kg.

B1: miraculin: protein that in the presence of acids transforms the sour impression into a sweet taste impression (protein, UniProt P13087 30-220, looked up)
Miraculin: DSAPNPVLDIDGEKLRTGTNYYIVPVLRDHGGGLTVSATTPNGTFVCPPRVVQTRKEVDHDRPLAFFPENPKEDVVRVSTDLNINFSAFMPCRWTSSTVWRLDKYDESTGQYFVTIGGVKGNPGPETISSWFKIEEFCGSGFYKLVFCPTVCGSCKVKCGDVGIYIDQKGRRRLALSDKPFAFEFNKTVYF
For the molecule B1, in data set [4], the “duration of the conversion of sour impression to sweet taste” value was 2 to 4 h.
